Data: patent publication US7432109B2, “Spetroscopic pH measurement using optimized mixtures of reagents to extend measurement range” (Schlumberger Technology Corporation, priority 2002, dated 2008)

Test: thermodynamic acid dissociation constant (pKa) of pH sensitive reagents
Assay type: physicochemical
Conditions: reagent properties used in simulations

SMILES | pKa
O=S1(=O)OC(c2cc(Br)c(O)c(Br)c2)(c2cc(Br)c(O)c(Br)c2)c2ccccc21 [Bromophenol Blue] | 4.11
O=S1(=O)OC(c2ccc(O)c(Cl)c2)(c2ccc(O)c(Cl)c2)c2ccccc21 [Chlorophenol Red] | 6.11
